Here are results for 2 molecules from patent US20240252496A1, “SELECTIVE HYPOTHALAMUS PERMEABLE HDAC6 INHIBITORS FORTREATMENT OF LEPTIN-RESISTANT OBESITY” (The Children’s Medical Center Corporation, priority 2022, published 2024).

“And” between values parts separate entries of the source, which are not always exact repeats. Equal values may be shown once. Read-outs that look alike come from different tables or passages of the source.

Data set [1] addresses T1, HDAC6 (Mus musculus (Mouse), UniProt Q9Z2V5). The data set can be described thus: LepRb acetyl-lysine immunoblotting in HEK293 cells. Format: cell-based. Particulars: 200 nM, 0.5-3 h. As for the experimental part:
HEK293 cells were transfected with the plasmids and were treated with vehicle or ACY775. Subsequently Flag immunoprecipitation was used to pull down LepRb followed by Ac^Lys or Flag immunoblotting.
To test whether HDAC6 can deacetylate LepRb, HEK293 cells were transfected with plasmids (LepRb-Flag, HA-p300 and HDAC6-myc). LepRb was immunoprecipitated by Flag antibodies, which was followed by acetyl-lysine (Ac^Lys) or immunoblottings.
Next, cells were transfected with plasmids (LepRb-Flag, HA-p300 and HDAC6-myc) and subsequently treated with ACY775 ([…]) for 0.5, 1, 2 and 3 h. […] Next, to investigate whether HDAC6 has any effect on LepRb tyrosine phosphorylation, which is indicative of LepRb activation, HEK 293 cells were transfected with LepRb and HDAC6-Myc plasmids in the indicated order and the cells stimulated with leptin (200 ng/ml) for 10 and 60 minutes. The Flag immunoprecipitates were exposed to phospho-tyrosine (p^Tyr) immunoblotting.
(A western blot detects proteins with antibodies after separation by electrophoresis.)

For a further data set, the system named is HDAC6 in AgRP neurons. The experiment in a line: DIO mice with HDAC6 deleted in AgRP neurons (HDAC6^Agrp-Δ). Format: in vivo. As for the experimental part: Design, validation, and stereotaxic injection of AAV viral vector carrying the guide RNAs targeting the mouse HDAC6 genomic locus. Three designed sgRNAs were concatenated and constructed into an AAV vector carrying a cre-enabled mCherry fluorescent marker.
(§1) Following the bilateral injection of AAV-sgHDAC6 into the arcuate nucleus of Agrp-ires-cre::LSL-Cas9-GFP (Agrp-Cre^+/−::Cas9^+/−) or control LSL-Cas9-GFP (Cas9^+/−) mice, immunostaining to detect the expression of mCherry and GFP was performed. AAV-sg-HDAC6 injected Agrp-Cre^+/−::Cas9^+/− (HDAC6^Agrp-Δ) and Cas9^+/− (HDAC6^WT) DIO mice (n=7 for each group) were fasted for 24 hours, and injected with ACY775 (10 mg/kg. i.p). Hourly total dark cycle food intake (g) (n=7 for each group) of these mice after ACY775 injection was measured. Body weight of AAV-sg-HDAC6 injected HDAC6^Agrp-Δ (n=11) and HDAC6^WT (n=6) mice were measured during 3 weeks of ACY775 (10 mg/kg/day, i.p.) treatment. Daily average food intake of HDAC6^Agro-Δ (n=11) and HDAC6^WT (n=6) mice was measured during 3 weeks of ACY775 (10 mg/kg/day, i.p.) treatment. 24-hour food intake average of HDAC Agrp- and HDAC6^WT mice during the 3 weeks of ACY775 treatment was assessed. Serum leptin level (ng/ml) of HDAC6^Agrp-Δ and HDAC6^WT mice after 2 weeks of ACY775 treatment (n=13 for HDAC6^WT and n=18 for HDAC6^Agrp-Δ) was measured. Lean mass (g); fat mass; and fat percentage (%) of HDAC Agrp- and HDAC6^WT DIO mice after 3 weeks of ACY775 treatment was measured by DEXA scan. The HDAC6 inhibitor responsive neurons in the dorsomedial hypothalamus (DMH) were assessed. Immunostaining and quantification of c-Fos expression was performed in the DMH of DIO mice following one-time ACY775 treatment (10 mg/kg, i.p.).

The subject of another data set is DMH neurons. The data set can be described thus: ACY775-responsive DMH neurons in TRAP2 DIO mice (c-fos, HDAC6 depletion, caspase3 ablation). Format: in vivo. As for the experimental part: as §1
Coordinates used for aav-sg-HDAC6 injection into the DMH of c-Fos-iCreER::LSL-Cas9-GFP (TRAP2-Cas9) mouse, mCherry immunostaining in the aav-sg-HDAC6 injected TRAP2-cas9 obese mice, which were treated three weeks earlier with one dose of ACY775 (10 mg/kg, i.p.) (TRAP2-HDAC6^DMH-Δ) or vehicle (TRAP2-HDAC6^WT), followed by 4-Hydroxytamoxifen (4-OHT) injection, were assessed. TRAP2-HDAC6^WT and TRAP2-HDAC6^DMH-Δ mice were fasted 24-h and treated with ACY775 (10 mg/kg, i.p.). Hourly and total dark cycle food intake (g) (n=4 for each group) was determined for these mice after ACY775 injection. Daily body weight of TRAP2-HDAC6^DMH-Δ (n=10) or TRAP2-HDAC6^WT (n=11) DIO mice was measured during 2 weeks of ACY775 (10 mg/kg/day, i.p) treatment. Daily average food intake of TRAP2-HDAC6^DMH-Δ (n=10) or TRAP2-HDAC6^WT (n=11) DIO mice was measured during 2 weeks of ACY775 treatment.
To investigate whether activity of other neuronal populations are altered after HDAC6 inhibitor treatment, c-fos staining was performed in the whole brain of DIO mice, which were acutely treated with ACY775. […] Some of the DMH neurons express high levels of LepRb and involved in regulation of appetite […]. […]

For data set [2] the following is noted: cited from earlier work; for brain/plasma ratio: in vivo.
Data set [3] can be described thus: Brain/plasma ratio, brain and hypothalamus penetrance. It is filed as in vivo. The settings on record: in words.
For data set [4], the target named is T1, HDAC6. The data set can be described thus: HDAC6 inhibition in hypothalamus and other brain regions (Ac-tubulin). Also noted: species or system mice. Particulars: in vivo.

T1 sequence (Q9Z2V5 whole entry): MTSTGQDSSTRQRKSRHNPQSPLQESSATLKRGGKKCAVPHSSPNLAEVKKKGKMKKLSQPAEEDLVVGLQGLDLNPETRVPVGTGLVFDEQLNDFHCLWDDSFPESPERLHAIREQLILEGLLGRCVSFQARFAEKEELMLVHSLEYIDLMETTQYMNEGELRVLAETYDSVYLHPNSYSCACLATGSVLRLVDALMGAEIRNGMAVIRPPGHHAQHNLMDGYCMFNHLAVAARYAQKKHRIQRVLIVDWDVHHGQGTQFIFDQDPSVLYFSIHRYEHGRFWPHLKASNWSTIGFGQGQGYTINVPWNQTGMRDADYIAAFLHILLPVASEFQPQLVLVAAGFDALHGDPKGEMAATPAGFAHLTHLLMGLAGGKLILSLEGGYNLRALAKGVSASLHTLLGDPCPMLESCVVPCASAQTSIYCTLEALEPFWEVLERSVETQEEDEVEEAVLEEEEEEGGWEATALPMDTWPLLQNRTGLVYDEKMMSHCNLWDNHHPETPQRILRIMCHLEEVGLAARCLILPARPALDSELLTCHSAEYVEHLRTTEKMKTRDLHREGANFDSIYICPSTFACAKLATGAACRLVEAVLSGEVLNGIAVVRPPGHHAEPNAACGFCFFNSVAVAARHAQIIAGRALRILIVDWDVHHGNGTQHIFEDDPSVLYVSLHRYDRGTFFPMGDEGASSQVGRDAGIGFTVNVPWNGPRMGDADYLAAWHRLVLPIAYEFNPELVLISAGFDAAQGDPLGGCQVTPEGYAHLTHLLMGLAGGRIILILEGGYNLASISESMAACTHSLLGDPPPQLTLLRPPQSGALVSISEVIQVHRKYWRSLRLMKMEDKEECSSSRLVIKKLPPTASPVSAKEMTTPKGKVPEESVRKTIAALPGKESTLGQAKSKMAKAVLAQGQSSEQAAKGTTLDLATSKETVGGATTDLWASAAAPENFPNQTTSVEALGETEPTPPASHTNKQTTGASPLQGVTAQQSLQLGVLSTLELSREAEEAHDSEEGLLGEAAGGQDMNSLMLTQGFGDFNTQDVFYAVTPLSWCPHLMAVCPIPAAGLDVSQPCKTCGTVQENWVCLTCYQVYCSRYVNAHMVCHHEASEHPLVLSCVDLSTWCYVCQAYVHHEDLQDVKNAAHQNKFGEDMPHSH

Turning to `O=C(NO)c1cnc(NC2(c3cccc(F)c3)CCCCC2)nc1` [ACY775, 2-[[1-(3-fluorophenyl)cyclohexyl]amino]-N-hydroxy-5-pyrimidinecarboxamide], the “deacetylation of LepRb” value on HDAC6 [1] was “completely block deactylation of LepRb”. Further, the “suppression of food intake after a single dose in HDAC6^Agrp-Δ DIO mice” value in the data set with HDAC6 in AgRP neurons (ACY775 10 mg/kg i.p., fasted) is “almost complete resistance to ACY755-induced suppression of food intake”. Further, in the data set on HDAC6 in AgRP neurons (chronic treatment), the “anti-obesity effects in HDAC6^Agrp-Δ vs HDAC6^WT DIO mice” value is given as “Significantly attenuated effects of ACY775 on all the parameters”. Besides, in the data set on DMH neurons (10 mg/kg i.p.), the “food intake in fasted caspase3^on-DMH vs caspase3^off-DMH mice” value is given as “significantly higher than caspase3^off-DMH mice”. Further, the “weight and food intake in TRAP2-HDAC6^DMH-Δ and TRAP2-HDAC6^WT mice” value in the data set with DMH neurons (2 weeks, 10 mg/kg/day i.p.) was “lost weight and food intake was reduced equally in both groups”. The “c-fos positive cells in DMH” value in the data set with DMH neurons (DIO mice, acute treatment, fasting) was “major increase in c-fos positive cell number”. The “body weight and food consumption in caspase3^on-DMH mice” value in the data set with DMH neurons (chronic, 10 mg/kg/day i.p.) was “neither reduced the body weight nor the food consumption”. The brain/plasma ratio in data set [2] is on record as 1.26.
In the case of `O=C(CCCCCCNC(=O)c1cnc(N(c2ccccc2)c2ccccc2)nc1)NO` [Ricolinostat], the “penetrance into the hypothalamus” value in data set [3] was “neither of which have high penetrance into the hypothalamus”. Moreover, the “HDAC6 inhibition in the hypothalamus” value on HDAC6 [4] is given as “nor show HDAC6 inhibition in the hypothalamus”. The brain/plasma ratio in data set [2] is 0.01 and < 0.01; in data set [2] (listed as ricolinostat), 0.01. In addition, the “brain penetrance / BBB permeability” value in data set [2] (in words) was “poor BBB permeability”.
